From ChEMBL document CHEMBL3351775, “Design, synthesis and anti-HIV evaluation of novel diarylnicotinamide derivatives (DANAs) targeting the entrance channel of the NNRTI binding pocket through structure-guided molecular hybridization” (Eur J Med Chem, 2014)
Where a name gives a salt, the structure may show the parent alone.

Experiments:
[1] = test system: Human immunodeficiency virus 1; assay: Antiviral activity against HIV1 3B infected in human MT4 cells assessed as inhibition of virus-induced […] after 5 days by MTT assay; type: functional, organism-based; conditions: Human immunodeficiency virus 1, 3B, MT4, 120 h
[2] = Cytotoxicity against mock-infected human MT4 cells after 5 days by MTT assay; type: cell-based
in vitro = conditions: human, MT4 cells, mock-infected (CC50) and HIV1 3B infected (EC50)
Description: Selectivity index, ratio of CC50 for mock-infected human MT4 cells to EC50 for HIV1 3B infected in human MT4 cells

[3] = test system: Human immunodeficiency virus 2; assay: Antiviral activity against HIV2 ROD infected in human MT4 cells assessed as inhibition of virus-induced […] after 5 days by MTT assay; type: functional, organism-based; conditions: Human immunodeficiency virus 2, ISOLATE ROD, MT4, 120 h
[4] = biological target: Human immunodeficiency virus type 1 reverse transcriptase (Human immunodeficiency virus 1, UniProt Q72547); assay: Inhibition of HIV1 reverse transcriptase assessed as reduction in biotin-dUTP incorporation using poly(rA)-oligo(dT) as template/primer and digoxigenin-/biotin-labeled dUTP nucleotides incubated for 1 hr
[5] = test system: Human immunodeficiency virus 1; assay: Antiviral activity against HIV1 RES056 expressing reverse transcriptase K103N + Y181C mutant infected in human MT4 cells assessed as inhibition of virus-induced […] after 5 days by MTT assay; type: functional, organism-based; conditions: Human immunodeficiency virus 1, RES056, MT4, 120 h

SMILES: C#CCNC(=O)c1cnc(Nc2ccc(C#N)cc2)cc1Oc1c(C)cc(C)cc1C
- EC50 [1]: 29 nM
- CC50 at 120 h [2]: 73 µM
- selectivity ratio (in vitro): 2470
- EC50 [3]: > 73 µM
- IC50 [4]: 70 nM
- EC50 [5]: 6.1 µM

SMILES: Cc1cc(C#N)cc(C)c1Oc1nc(Nc2ccc(C#N)cc2)nc(N)c1Br [ETRAVIRINE]
- EC50 [1]: 4.1 nM
- CC50 at 120 h [2]: > 4.59 µM
- selectivity ratio (in vitro): > 1130
- EC50 [5]: 0.025 µM

SMILES: CCCNC(=O)c1cnc(Nc2ccc(C#N)cc2)cc1Oc1c(C)cc(C)cc1C
- EC50 [1]: 55 nM
- CC50 at 120 h [2]: 18.9 µM
- selectivity ratio (in vitro): 335
- EC50 [3]: > 11.1 µM
- IC50 [4]: 320 nM
- EC50 [5]: > 11.2 µM

SMILES: Cc1cc(C#N)cc(C)c1Oc1cc(Nc2ccc(C#N)cc2)ncc1C(N)=O
- EC50 [1]: 50 nM
- CC50 at 120 h [2]: > 326 µM
- selectivity ratio (in vitro): > 6200
- EC50 [3]: > 326 µM
- IC50 [4]: 80 nM
- EC50 [5]: > 326 µM

SMILES: Cc1cc(C#N)cc(C)c1Oc1cc(Nc2ccc(C#N)cc2)ncc1C(=O)NCCN(C)C
- EC50 [1]: > 8800 nM
- CC50 at 120 h [2]: 23.2 µM
- selectivity ratio (in vitro): ≤ 3
- EC50 [3]: > 7.5 µM
- IC50 [4]: 25800 nM
- EC50 [5]: > 23.2 µM

SMILES: Cc1cc(C)c(Oc2cc(Nc3ccc(C#N)cc3)ncc2C(=O)NCC2CC2)c(C)c1
- EC50 [1]: 110 nM
- CC50 at 120 h [2]: 30.6 µM
- selectivity ratio (in vitro): 264
- EC50 [3]: > 30.6 µM
- IC50 [4]: 680 nM
- EC50 [5]: > 30.6 µM

SMILES: Cc1cc(C)c(Oc2cc(Nc3ccc(C#N)cc3)ncc2C(=O)NCCN(C)C)c(C)c1
- EC50 [1]: 630 nM
- CC50 at 120 h [2]: 4.67 µM
- selectivity ratio (in vitro): 7
- EC50 [3]: > 16.7 µM
- IC50 [4]: 3450 nM
- EC50 [5]: > 16.7 µM

SMILES: COC(CNC(=O)c1cnc(Nc2ccc(C#N)cc2)cc1Oc1c(C)cc(C#N)cc1C)OC
- EC50 [1]: 4540 nM
- CC50 at 120 h [2]: 90.6 µM
- selectivity ratio (in vitro): 20
- EC50 [3]: > 90.6 µM
- IC50 [4]: 11400 nM
- EC50 [5]: > 90.6 µM

SMILES: O=C1Nc2ccc(Cl)cc2[C@@](C#CC2CC2)(C(F)(F)F)O1 [EFAVIRENZ]
- EC50 [1]: 6.3 nM
- CC50 at 120 h [2]: > 6.34 µM

SMILES: COCCNC(=O)c1cnc(Nc2ccc(C#N)cc2)cc1Oc1c(C)cc(C)cc1C
- EC50 [1]: 67 nM
- CC50 at 120 h [2]: 24 µM
- selectivity ratio (in vitro): 359
- EC50 [3]: > 24 µM
- IC50 [4]: 520 nM
- EC50 [5]: 7.8 µM

SMILES: C=CCNC(=O)c1cnc(Nc2ccc(C#N)cc2)cc1Oc1c(C)cc(C)cc1C
- EC50 [1]: 58 nM
- CC50 at 120 h [2]: 21.3 µM
- selectivity ratio (in vitro): 364
- EC50 [3]: > 21.5 µM
- IC50 [4]: 170 nM
- EC50 [5]: 10.1 µM

SMILES: O=c1[nH]cnc2c1ncn2[C@H]1CC[C@@H](CO)O1 [DIDANOSINE]
- EC50 [1]: 23200 nM
- CC50 at 120 h [2]: > 212 µM
- selectivity ratio (in vitro): > 9
- EC50 [3]: 44.9 µM

SMILES: Cc1cc(C)c(Oc2cc(Nc3ccc(C#N)cc3)ncc2C(=O)NC2CC2)c(C)c1
- EC50 [1]: 240 nM
- CC50 at 120 h [2]: 25.8 µM
- selectivity ratio (in vitro): 103
- EC50 [3]: > 25.7 µM
- IC50 [4]: 230 nM
- EC50 [5]: > 25.8 µM

SMILES: C=CCNC(=O)c1cnc(Nc2ccc(C#N)cc2)cc1Oc1c(C)cc(C#N)cc1C
- EC50 [1]: 240 nM
- CC50 at 120 h [2]: 207 µM
- selectivity ratio (in vitro): 625
- EC50 [3]: > 207 µM
- IC50 [4]: 2850 nM
- EC50 [5]: > 207 µM

SMILES: Cc1cc(C)c(Oc2cc(Nc3ccc(C#N)cc3)ncc2C(=O)NCC2CCCO2)c(C)c1 (stereo unspecified)
- EC50 [1]: 180 nM
- CC50 at 120 h [2]: > 274 µM
- selectivity ratio (in vitro): > 1490
- EC50 [3]: > 274 µM
- IC50 [4]: 1200 nM
- EC50 [5]: > 274 µM

SMILES: Cc1cc(C#N)cc(C)c1Oc1cc(Nc2ccc(C#N)cc2)ncc1C(=O)NCC1CC1
- EC50 [1]: 850 nM
- CC50 at 120 h [2]: > 146 µM
- selectivity ratio (in vitro): ≥ 175
- EC50 [3]: > 146 µM
- IC50 [4]: 4250 nM
- EC50 [5]: > 146 µM

SMILES: Cc1cc(C)c(Oc2cc(Nc3ccc(C#N)cc3)ncc2C(N)=O)c(C)c1
- EC50 [1]: 27 nM
- CC50 at 120 h [2]: > 336 µM
- selectivity ratio (in vitro): > 12500
- EC50 [3]: > 336 µM
- IC50 [4]: 20 nM
- EC50 [5]: > 336 µM

SMILES: C#CCNC(=O)c1cnc(Nc2ccc(C#N)cc2)cc1Oc1c(C)cc(C#N)cc1C
- EC50 [1]: 240 nM
- CC50 at 120 h [2]: 167 µM
- selectivity ratio (in vitro): 703
- EC50 [3]: > 167 µM
- IC50 [4]: 1290 nM
- EC50 [5]: > 167 µM

SMILES: Cc1cc(C#N)cc(C)c1Oc1cc(Nc2ccc(C#N)cc2)ncc1C(=O)NC1CC1
- EC50 [1]: 310 nM
- CC50 at 120 h [2]: 231 µM
- selectivity ratio (in vitro): 784
- EC50 [3]: > 231 µM
- IC50 [4]: 3370 nM
- EC50 [5]: > 231 µM

SMILES: Cc1cc(C)c(Oc2cc(Nc3ccc(C#N)cc3)ncc2C(=O)NCCC#N)c(C)c1
- EC50 [1]: 33 nM
- CC50 at 120 h [2]: 9.89 µM
- selectivity ratio (in vitro): 310
- EC50 [3]: > 9.9 µM
- IC50 [4]: 190 nM
- EC50 [5]: > 9.89 µM

SMILES: CCCNC(=O)c1cnc(Nc2ccc(C#N)cc2)cc1Oc1c(C)cc(C#N)cc1C
- EC50 [1]: 540 nM
- CC50 at 120 h [2]: 170 µM
- selectivity ratio (in vitro): 321
- EC50 [3]: > 170 µM
- IC50 [4]: 4140 nM
- EC50 [5]: > 170 µM

SMILES: Nc1ccn([C@@H]2CS[C@H](CO)O2)c(=O)n1 [LAMIVUDINE]
- EC50 [1]: 2220 nM
- CC50 at 120 h [2]: > 87.2 µM
- selectivity ratio (in vitro): > 39
- EC50 [3]: 8.81 µM

SMILES: Cc1cc(C#N)cc(C)c1Oc1cc(Nc2ccc(C#N)cc2)ncc1C(=O)NCC1CCCO1 (stereo unspecified)
- EC50 [1]: 3100 nM
- CC50 at 120 h [2]: 143 µM
- selectivity ratio (in vitro): 46
- EC50 [3]: > 142 µM
- IC50 [4]: 10900 nM
- EC50 [5]: > 142 µM

SMILES: Cc1ccnc2c1NC(=O)c1cccnc1N2C1CC1 [NEVIRAPINE]
- EC50 [1]: 310 nM
- CC50 at 120 h [2]: > 15 µM
- EC50 [5]: > 7.58 µM

SMILES: COC(CNC(=O)c1cnc(Nc2ccc(C#N)cc2)cc1Oc1c(C)cc(C)cc1C)OC
- EC50 [1]: 280 nM
- CC50 at 120 h [2]: 23.2 µM
- selectivity ratio (in vitro): 83
- EC50 [3]: > 23.2 µM
- IC50 [4]: 1890 nM
- EC50 [5]: > 23.2 µM

SMILES: Cc1cn([C@H]2C[C@H](N=[N+]=[N-])[C@@H](CO)O2)c(=O)[nH]c1=O [ZIDOVUDINE]
- CC50 at 120 h [2]: > 93.5 µM
- EC50 [3]: 0.0067 µM
- EC50 [5]: 0.01 µM

SMILES: COCCNC(=O)c1cnc(Nc2ccc(C#N)cc2)cc1Oc1c(C)cc(C#N)cc1C
- EC50 [1]: 1740 nM
- CC50 at 120 h [2]: 61 µM
- selectivity ratio (in vitro): 35
- EC50 [3]: > 61 µM
- IC50 [4]: 11300 nM
- EC50 [5]: > 61 µM

SMILES: CC(C)Nc1cccnc1N1CCN(C(=O)c2cc3cc(NS(C)(=O)=O)ccc3[nH]2)CC1 [DELAVIRDINE MESYLATE]
- EC50 [1]: 660 nM
- CC50 at 120 h [2]: > 43.8 µM
- selectivity ratio (in vitro): > 67
- EC50 [5]: > 43.8 µM

SMILES: Cc1cc(C#N)cc(C)c1Oc1cc(Nc2ccc(C#N)cc2)ncc1C(=O)NCCC#N
- EC50 [1]: 690 nM
- CC50 at 120 h [2]: 65.8 µM
- selectivity ratio (in vitro): 97
- EC50 [3]: > 65.8 µM
- IC50 [4]: 3940 nM
- EC50 [5]: > 65.8 µM
